The source of these data is paper PMC9972151, “Phase I study of plitidepsin in combination with bortezomib and dexamethasone in patients with relapsed/refractory multiple myeloma” (Cancer Medicine, 2022).

Where “and” joins values, the source holds several entries; their conditions need not be identical. Equal entries are not always repeated. Where two headings read alike, the source gives them in different places. Numbered stars: 1 amine (or outer) side, 2 acyl side, 3 side chain; on linkers, the order of the positions; unused ones are H or OH. Bridge positions count the residues as written; N and C are the ends. Square brackets hold non-standard residues; d marks the D form. Peptide text beside a SMILES is read from it. * marks the point of attachment. X1 = CC[C@H](C)[C@@H](N[*:1])[C@@H](O)CC(=O)O[C@H](C(=O)[C@H](C)C(=O)[*:2])C(C)C; NMeY = CN[C@@H](Cc1ccc(O)cc1)C(=O)O; dNMeL = CN[C@H](CC(C)C)C(=O)O; Pyruvoyl = CC(=O)C(=O)*

Broadly, the Cmax is the highest concentration seen after dosing. As a reminder, the clearance is a measure of how efficiently the substance is removed, as volume per time. As a reminder, the half-life is the time in which the quantity being followed falls by half.

Data set [1] concerns MM. Also noted: method as in PMID 23950178, PMID 28642620, PMID 24429336, PMID 28847998, PMID 27091875. The following applies: named drug in a BTZ and DXM-containing combination; cited from earlier work.
For data set [2], the system named is MM cell lines and primary MM cells. The note with it: cited from earlier work. The source says: The positive results observed with plitidepsin and BTZ against MM (both as single agents and in combination with DXM), their different mechanisms of action, and the potential synergism of the triple combination warranted the exploration of the efficacy of plitidepsin plus BTZ and DXM in a clinical trial in patients with relapsed and/or refractory MM.

Data set [3] in a line: Plitidepsin whole blood pharmacokinetics, non-compartmental. The class given is in vivo. The note with it: human, iv, mean (SD); for Cmax: NCA, UPLC-MS/MS. Here is the method:
(§1) Sixteen samples were collected from each patient to quantify plitidepsin whole blood and BTZ plasma concentrations at baseline and at different times 1 week after the first infusion. In patients treated at the RD, 15 additional samples were taken 1 week after the second plitidepsin infusion.
(§2) Continuous variables were presented with summary statistics and categorical variables in frequency tables. Time‐to‐event variables were calculated using Kaplan–Meier approach. Binomial exact distribution was used to calculate 95% confidence intervals (95%CIs) for categorical variables. Individual PK parameters were tabulated. Statistical analyses were performed using SAS v.9.2, (SAS Institute Inc), and PK non‐compartmental analysis (NCA) was performed using Phoenix WinNonlin v.6.3.
Both drugs (plitidepsin and BTZ) were measured by validated liquid extraction methods followed by ultra-performance liquid chromatography tandem mass-spectrometry detection (Dynakin, Derio, Spain). The calibration range for plitidepsin and BTZ was 0.25-100 ng/mL, and 0.1-5 ng/mL, respectively. The reference for plitidepsin PK results was a population-PK model of plitidepsin (data from 303 patients treated in seven phase II studies and one phase III study), which was used to simulate exposure in whole blood after one 3-hour i.v. infusion of 5.0 mg/m² of plitidepsin in patients with similar characteristics compared to those treated in this study (unpublished data). The reference for BTZ PK results was a phase I study in patients with MM (see Moreau et al (25)).

The conditions of data set [4]: patients with MM treated with plitidepsin in other trials; ref unpublished data; cited from earlier work. An excerpt:
The plitidepsin concentrations found in this study fitted within the 90% prediction interval simulated for patients with MM, although most were above the 50th pe ...

Data set [5] concerns MM. The following applies: cited from earlier work. The source says: Results of the VISTA trial were further supported by those of phase II trials: RETRIEVE (ORR: 40%) and SUMMIT (ORR: 35%, including minimal response while on BTZ treatment), and of the phase III APEX trial (crossover from DXM to BTZ), in which the overall and complete response rates with BTZ were 43% and 9%, respectively.[9], [10], [11]

On the set-up of data set [6]: method as in Moreau et al[25]. The note with it: BTZ 1.3 mg/m^2 subcutaneously, reference study in MM patients; mean (SD), n = 10; ref Moreau et al[25]; cited from earlier work.
Data set [7] is described as follows: BTZ plasma pharmacokinetics, non-compartmental. The class given is in vivo, human. The following applies: mean (SD); for C max: NCA, UPLC-MS/MS. Here is the method: as §1, §2
Both drugs (plitidepsin and BTZ) were measured by validated liquid extraction methods followed by ultra-performance liquid chromatography tandem mass-spectrometry detection (Dynakin, Derio, Spain). The calibration range for plitidepsin and BTZ was 0.25-100 ng/mL, and 0.1-5 ng/mL, respectively.

The subject of data set [8] is MM. The note with it: phase III VISTA trial; single-agent BTZ re-treatment; cited from earlier work. An excerpt: The feasibility of re‐treating MM patients with single‐agent bortezomib (BTZ) was first confirmed in the phase III VISTA trial,[8] where 47% of patients pre‐treated with BTZ‐based regimens during earlier phases of the disease responded again to the drug alone. This was further supported by the results of the phase II RETRIEVE and SUMMIT trials and the phase III APEX trial.[9], [10], [11]

Setting [9] is: phase III APEX trial (crossover from DXM to BTZ).
Setting [10] is: Dose level 1 4.0/1.0/40.0, Day 1 of Cycle 1, NCA, n = 6.
Where [11] appears, read: Dose level 2 4.0/1.3/40.0, Day 1 of Cycle 1, NCA, n = 3.
The mark [12] stands for this setting: Dose level 3 (RD cohort) 5.0/1.3/40.0, Day 1 of Cycle 1, NCA, n = 9.

For `Nc1cccc2c1C(=O)N(C1CCC(=O)NC1=O)C2=O` (stereo not drawn) [pomalidomide], the “Median DoR” value in data set [1] is on record as 7.4 months.
With elotuzumab, in data set [1], the “Median DoR” value is given as 11.4 months.
On to `CC[C@H](C)[C@H]1NC(=O)[C@@H](NC(=O)[C@@H](CC(C)C)N(C)C(=O)[C@@H]2CCCN2C(=O)C(C)=O)[C@@H](C)OC(=O)[C@H](Cc2ccc(OC)cc2)N(C)C(=O)[C@@H]2CCCN2C(=O)[C@H](CC(C)C)NC(=O)[C@@H](C)C(=O)[C@H](C(C)C)OC(=O)C[C@@H]1O` [Plitidepsin, plitidepsin] (Pyruvoyl-P[dNMeL]T[X1]LP[NMeY](Me); ester 3-C (inferred); N-terminus assumed), for which the “In vitro activity of the combination of plitidepsin with BTZ or DXM” value in data set [2] is listed as “synergistic activity”. The Cmax stood at 83.8 ng/mL in data set [3] (Dose level 1 4.0/1.0/40.0, Day 1 of Cycle 1, 3-h i.v. infusion, n = 5); 117 ng/mL in data set [3] (Dose level 2 4.0/1.3/40.0, Day 1 of Cycle 1, 3-h i.v. infusion, n = 3); 71.7 ng/mL in data set [3] (Dose level 3 (RD cohort) 5.0/1.3/40.0, Day 1 of Cycle 1, 3-h i.v. infusion, n = 9). In addition, the AUC(0-inf) in data set [3] (Dose level 1 4.0/1.0/40.0, Day 1 of Cycle 1, NCA, n = 5, read-out: AUC (time zero to infinity)) is 1260 ng·h/mL; in data set [3] (Dose level 2 4.0/1.3/40.0, Day 1 of Cycle 1, NCA, n = 3, read-out: AUC (time zero to infinity)), 1420 ng·h/mL; in data set [3] (Dose level 3 (RD cohort) 5.0/1.3/40.0, Day 1 of Cycle 1, NCA, n = 9, read-out: AUC (time zero to infinity)), 1060 ng·h/mL. For the same compound, the clearance was 94.5 mL/min in data set [3] (Dose level 1 4.0/1.0/40.0, Day 1 of Cycle 1, NCA, n = 5, read-out: CL (total clearance) (converted)); 93.2 mL/min in data set [3] (Dose level 2 4.0/1.3/40.0, Day 1 of Cycle 1, NCA, n = 3, read-out: CL (total clearance) (converted)); 157 mL/min in data set [3] (Dose level 3 (RD cohort) 5.0/1.3/40.0, Day 1 of Cycle 1, NCA, n = 9, read-out: CL (total clearance) (converted)). Besides, the half-life in data set [3] (Dose level 1 4.0/1.0/40.0, Day 1 of Cycle 1, NCA, n = 5, read-out: HL (terminal half-life) (converted)) was 40.1 h; in data set [3] (Dose level 2 4.0/1.3/40.0, Day 1 of Cycle 1, NCA, n = 3, read-out: HL (terminal half-life) (converted)), 46.2 h; in data set [3] (Dose level 3 (RD cohort) 5.0/1.3/40.0, Day 1 of Cycle 1, NCA, n = 9, read-out: HL (terminal half-life) (converted)), 44.6 h. Further, the Vd stood at 169 L in data set [3] (Dose level 1 4.0/1.0/40.0, Day 1 of Cycle 1, NCA, n = 5, read-out: V ss (volume of distribution at steady-state)); 185 L in data set [3] (Dose level 1 4.0/1.0/40.0, Day 1 of Cycle 1, NCA, n = 5, read-out: V z (apparent volume of distribution during terminal phase)); 192 L in data set [3] (Dose level 2 4.0/1.3/40.0, Day 1 of Cycle 1, NCA, n = 3, read-out: V ss (volume of distribution at steady-state)); 394 L in data set [3] (Dose level 2 4.0/1.3/40.0, Day 1 of Cycle 1, NCA, n = 3, read-out: V z (apparent volume of distribution during terminal phase)); 341 L in data set [3] (Dose level 3 (RD cohort) 5.0/1.3/40.0, Day 1 of Cycle 1, NCA, n = 9, read-out: V ss (volume of distribution at steady-state)); 671 L in data set [3] (Dose level 3 (RD cohort) 5.0/1.3/40.0, Day 1 of Cycle 1, NCA, n = 9, read-out: V z (apparent volume of distribution during terminal phase)). Further, the “Median CL” value in data set [4] is reported as 4.4 L/h. Also, the Median peripheral volume in data set [4] is reported as 513 L.
For the compound `Cc1[nH]c2ccccc2c1CCNCc1ccc(/C=C/C(=O)NO)cc1` [panobinostat], the “Median DoR” value in data set [1] is 6.0 months.
Consider `Nc1cccc2c1CN(C1CCC(=O)NC1=O)C2=O` (stereo not drawn) [lenalidomide], for which, in data set [1], the “Median DoR” value is given as 8.7 months.
As for `CC1(C)CCC(CN2CCN(c3ccc(C(=O)NS(=O)(=O)c4ccc(NCC5CCOCC5)c([N+](=O)[O-])c4)c(Oc4cnc5[nH]ccc5c4)c3)CC2)=C(c2ccc(Cl)cc2)C1` [venetoclax], the “Median DoR” value in data set [1] was 9.7 months.
For the compound `CC(C)C[C@H](NC(=O)[C@H](Cc1ccccc1)NC(=O)c1cnccn1)B(O)O` [BTZ, bortezomib], the ORR was 40% in data set [5] (phase II RETRIEVE trial) and 35% in data set [5] (phase II SUMMIT trial, including minimal response while on BTZ treatment). Moreover, the Complete response rate in data set [5] (setting [9]) is on record as 9%. The Overall response rate in data set [5] (setting [9]) was 43%. The “AUC (time zero to infinity)” value in data set [6] is 151 (53.5) h*μg/L; in data set [7] (setting [10]), 77.7 (17.9) h*μg/L; in data set [7] (setting [11]), 134 (46.8) h*μg/L; in data set [7] (setting [12]), 138 (88.6) h*μg/L. Further, the C max is 16.5 μg/L and 16.5 (8.4) μg/L in data set [6]; 11.0 (7.71) μg/L in data set [7] (Dose level 1 4.0/1.0/40.0, Day 1 of Cycle 1, subcutaneous bolus, n = 6); 16.9 (4.21) μg/L in data set [7] (Dose level 2 4.0/1.3/40.0, Day 1 of Cycle 1, subcutaneous bolus, n = 3); 17.0 (8.87) μg/L in data set [7] (Dose level 3 (RD cohort) 5.0/1.3/40.0, Day 1 of Cycle 1, subcutaneous bolus, n = 9). Further, the “CL/F (total clearance after extravascular administration)” value in data set [6] is 16.6 L/h and 16.6 (5.8) L/h; in data set [7] (setting [10]), 23.4 (6.79) L/h; in data set [7] (setting [11]), 17.9 (6.03) L/h; in data set [7] (setting [12]), 24.9 (19.2) L/h. Moreover, the “HL (terminal half-life)” value in data set [6] is given as 65.7 (46.5) h; in data set [7] (setting [10]), 39.1 (9.22) h; in data set [7] (setting [11]) it was 51.5 (41.4) h; in data set [7] (setting [12]), 49.0 (17.8) h. For the same compound, the “V z /F (apparent volume of distribution during terminal phase after extravascular administration)” value is 1330 L and 1330 (578) L in data set [6]; 1308 (431) L in data set [7] (setting [10]); 1208 (52.4) L in data set [7] (setting [11]); 1658 (1457) L in data set [7] (setting [12]). The “Patients pre-treated with BTZ-based regimens who responded again to the drug alone” value in data set [8] is on record as 47%.
